Data on one cell line can be found in the supplement of paper PMC10307832.

Common to all, as to experiment: relative viability (nuclei count vs DMSO), 5 days (fraction); higher = more cells survive
Compound in the assay “XMD13-2 + Trametinib”: C1CC1C(=O)NC2=NNC3=C2C=CC(=C3)C4=CC(=CC=C4)C(=O)NC5CC5 [XMD13-2] + CC(=O)Nc1cccc(-n2c(=O)n(C3CC3)c(=O)c3c(Nc4ccc(I)cc4F)n(C)c(=O)c(C)c32)c1 [Trametinib] (partner 0.02 µM)
Summed up:
(§1)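 Relative viability is defined as nuclei in treated wells over nuclei in vehicle wells. Duplicate plates were run and medians reported. Lung cancer cell lines in 1536-well plates were dosed by pin tool one day after seeding, with one drug or with a fixed anchor-drug dose plus five library-drug doses (not always all listed) in √10 steps, and nuclei were counted after 5 days.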

Compound in the assay “ALW-II-49-7 + Linsitinib”: Cc1ccc(C(=O)Nc2cccc(C(F)(F)F)c2)cc1Nc1cncc(C(N)=O)c1 [ALW-II-49-7] + C[C@]1(O)C[C@@H](c2nc(-c3ccc4ccc(-c5ccccc5)nc4c3)c3c(N)nccn32)C1 [Linsitinib] (partner 1 µM)
An outline of the steps:
as §1

Compound in the assay “XMD13-2 + Decitabine”: C1CC1C(=O)NC2=NNC3=C2C=CC(=C3)C4=CC(=CC=C4)C(=O)NC5CC5 [XMD13-2] + Nc1ncn([C@H]2C[C@H](O)[C@@H](CO)O2)c(=O)n1 [Decitabine] (partner 2 µM)
An outline of the steps: as §1

Compound in the assay “XMD13-2 + Foretinib”: C1CC1C(=O)NC2=NNC3=C2C=CC(=C3)C4=CC(=CC=C4)C(=O)NC5CC5 [XMD13-2] + COc1cc2c(Oc3ccc(NC(=O)C4(C(=O)Nc5ccc(F)cc5)CC4)cc3F)ccnc2cc1OCCCN1CCOCC1 [Foretinib] (partner 0.25 µM)
Summed up:
as §1

In the case of UMC-11, the relative viability came to 0.908 in the assay with XMD13-2 + Trametinib (first compound 0.05 µM); 0.708 with XMD13-2 + Trametinib (first compound 0.1581 µM); 0.726 with XMD13-2 + Trametinib (first compound 0.5 µM); 0.685 with XMD13-2 + Trametinib (first compound 1.581 µM); 0.513 with XMD13-2 + Trametinib (first compound 5 µM); 0.989 with ALW-II-49-7 + Linsitinib (first compound 0.08 µM). The relative viability with ALW-II-49-7 + Linsitinib (first compound 0.253 µM) stood at 0.902; with ALW-II-49-7 + Linsitinib (first compound 2.53 µM), 1.12; with ALW-II-49-7 + Linsitinib (first compound 8 µM), 1.04; with XMD13-2 + Decitabine (first compound 0.05 µM), 0.62; with XMD13-2 + Decitabine (first compound 0.1581 µM), 0.585; in the assay with XMD13-2 + Decitabine (first compound 0.5 µM), 0.793. Further, the relative viability is 0.625 in the assay with XMD13-2 + Decitabine (first compound 1.581 µM); 0.579 with XMD13-2 + Decitabine (first compound 5 µM); 1.23 with XMD13-2 + Foretinib (first compound 0.05 µM); 1.09 in the assay with XMD13-2 + Foretinib (first compound 0.1581 µM); 1 in the assay with XMD13-2 + Foretinib (first compound 0.5 µM); 1.08 with XMD13-2 + Foretinib (first compound 1.581 µM). The relative viability with XMD13-2 + Foretinib (first compound 5 µM) came to 1.06.
